Assay results reported in US12252524B2, “GIP/GLP1 co-agonist compounds” (Eli Lilly and Company, priority 2018, dated 2025).
Read-outs that look alike come from different tables or passages of the source. Numbered stars: 1 amine (or outer) side, 2 acyl side, 3 side chain; on linkers, the order of the positions; unused ones are H or OH. Square brackets hold non-standard residues; d marks the D form. Side chains are listed from the residue outwards. Peptide text beside a SMILES is read from it. * marks the point of attachment. C20 diacid = O=C(O)CCCCCCCCCCCCCCCCCCC(=O)*; C18 diacid = O=C(O)CCCCCCCCCCCCCCCCC(=O)*; γGlu = O=C(O)[C@H](CCC(=O)[*:2])N[*:1]; αMeL = CC(C)C[C@](C)(N)C(=O)O; AEEA = NCCOCCOCC(=O)O; Aib = CC(C)(N)C(=O)O

What was measured:
human GLP-1R [1] = target: T1, human GLP-1R (Homo sapiens, UniProt P43220); experiment: [125I]-GLP-1 binding (SPA), human GLP-1 receptor; parameters: expressed in transfected cells; crude membranes; details: read-out: hGLP1R Ki, (nM) (SEM, n)
Procedure, shortened: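 Assay buffer: HEPES 25 mM, pH 7.4, CaCl2 2.5 mM, MgCl2 1 mM, with EDTA-free protease inhibitors. Receptor came from crude cell membranes prepared by homogenization and centrifugation at 4° C. IC50s came from four-parameter fits (maximum, minimum, IC50, Hill slope) and were expressed as Ki geometric means with SEM.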

[2] = target: T2, gastric inhibitory peptide receptor (GIPR) (Homo sapiens, UniProt P48546); experiment: cAMP pharmacological functional assay in presence of casein, hGIPR; format: cell-based; details: HEK293 cells expressing hGIPR, 0.1% Casein, geometric mean; read-out: hGIPR cAMP Rel EC50 nM (SEM, n)
T2 sequence (P48546 22-466): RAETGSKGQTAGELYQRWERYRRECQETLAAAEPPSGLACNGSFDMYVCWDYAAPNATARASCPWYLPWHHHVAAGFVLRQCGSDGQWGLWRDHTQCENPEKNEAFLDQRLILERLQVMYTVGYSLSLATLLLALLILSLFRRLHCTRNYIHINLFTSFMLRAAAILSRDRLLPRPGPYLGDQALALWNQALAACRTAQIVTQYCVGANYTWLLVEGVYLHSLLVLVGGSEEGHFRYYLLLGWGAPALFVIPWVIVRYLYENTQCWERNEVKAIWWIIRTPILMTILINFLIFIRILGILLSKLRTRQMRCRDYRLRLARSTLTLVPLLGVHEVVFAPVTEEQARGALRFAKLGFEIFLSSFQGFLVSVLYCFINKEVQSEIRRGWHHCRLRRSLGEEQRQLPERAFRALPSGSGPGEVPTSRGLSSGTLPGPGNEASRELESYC

human Gcg receptor = target: T3, human Gcg receptor (Homo sapiens, UniProt P47871); experiment: [125I]-Glucagon binding (SPA), human Gcg receptor; details: read-out: hGLcgR Ki, nM (SEM, n)
T3 construct: expressed in transfected cells; crude membranes
Procedure, shortened: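 Scintillation counts are taken after membranes and WGA beads incubate and settle for 12 hours at room temperature. Buffer is 25 mM HEPES, pH 7.4, with CaCl2, MgCl2, bacitracin and Tween-20. Ki values, from four-parameter IC50 fits, are geometric means over independent days.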

[3] = target: human GLP-1 receptor (GLP-1R) (Homo sapiens, UniProt P43220); experiment: cAMP pharmacological functional assay in presence of casein, hGLP-1R; format: cell-based; details: HEK293 cells expressing hGLP-1R, 0.1% Casein, geometric mean; read-out: hGLP1R cAMP Rel EC50 nM (SEM, n)
human GIP receptor = target: T4, human GIP receptor (Homo sapiens, UniProt P48546); experiment: [125I]-GIP binding (SPA), human GIP receptor; details: read-out: hGIPR Ki, nM (SEM, n)
T4 construct: expressed in transfected cells; crude membranes
T4 sequence (P48546 22-466): T2 sequence (P48546 22-466)

human GLP-1R [4] = target: T1, human GLP-1R; experiment: GLP-1R CHO cell β-arrestin recruitment assay; format: cell-based; parameters: host or cells: CHO-K1 PathHunter cells, assay-ready frozen; details: for EC50: CHO-K1 cells; for hGLP1R B-Arrestin2 % Top: normalized to GLP-1 maximum control
Text: Activated G-protein coupled receptors can interact with the β-arrestin family of signalling proteins. […] CHO-K1 cells expressing Pro-Link-tagged Human GLP-1R and enzyme-acceptor-tagged β-arrestin-2 may be obtained from DiscoveRx and prepared as assay-ready frozen cells. Test peptides are solubilized in DMSO and serial dilutions are perfomed using the Echo acoustic dispenser (LabCyte). Assay media is the PathHunter Cell Assay Buffer (DiscoveRx) containing 0.1% w/v hydrolyzed Casein (Sigma). […] Plates are incubated for 90 minutes in a 37′C/5% C02 incubator and 10 ul of PathHunter detection reagent is added (DiscoveRx) and plates are incubated at room temperature for 60 minutes. Luminescence signal is measured. Peptide concentration-response curves fit to a four-parameter logistic model to calculate potency as an EC50.

[5] = PathHunter β-arrestin-2 recruitment, 0.1% casein, read-out: hGLP1R B-Arrestin2 Rel EC50 uM (SEM, n)

T3 sequence (P47871 26-477): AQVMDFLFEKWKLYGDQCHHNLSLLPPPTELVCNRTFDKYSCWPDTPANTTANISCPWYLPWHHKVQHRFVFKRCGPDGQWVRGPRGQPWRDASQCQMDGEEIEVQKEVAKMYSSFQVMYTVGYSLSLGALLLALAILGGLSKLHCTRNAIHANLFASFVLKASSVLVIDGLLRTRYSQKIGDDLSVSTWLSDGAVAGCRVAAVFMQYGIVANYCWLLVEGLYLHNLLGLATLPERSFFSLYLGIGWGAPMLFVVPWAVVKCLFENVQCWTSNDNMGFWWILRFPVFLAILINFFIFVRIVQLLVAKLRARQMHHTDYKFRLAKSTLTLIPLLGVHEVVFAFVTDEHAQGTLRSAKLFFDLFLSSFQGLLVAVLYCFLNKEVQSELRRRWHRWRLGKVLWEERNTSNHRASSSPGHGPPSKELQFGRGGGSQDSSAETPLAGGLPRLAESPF
T1 sequence (P43220 24-463): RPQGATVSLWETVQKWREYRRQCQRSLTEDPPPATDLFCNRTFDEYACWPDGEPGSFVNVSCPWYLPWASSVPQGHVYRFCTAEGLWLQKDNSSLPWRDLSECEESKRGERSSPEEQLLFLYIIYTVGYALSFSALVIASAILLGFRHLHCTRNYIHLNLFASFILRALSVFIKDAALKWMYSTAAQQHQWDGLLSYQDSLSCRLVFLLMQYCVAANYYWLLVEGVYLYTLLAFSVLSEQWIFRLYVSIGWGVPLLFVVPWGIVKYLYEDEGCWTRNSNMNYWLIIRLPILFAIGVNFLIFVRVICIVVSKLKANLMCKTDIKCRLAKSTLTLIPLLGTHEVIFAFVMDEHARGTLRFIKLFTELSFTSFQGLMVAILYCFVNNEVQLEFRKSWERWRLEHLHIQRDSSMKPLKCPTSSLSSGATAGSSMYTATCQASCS
Sequence of human GLP-1 receptor (GLP-1R) (P43220 24-463): as above

SMILES | Ki (human GLP-1R [1]) | EC50 [2] | Ki (human Gcg receptor) | EC50 [3] | Ki (human GIP receptor) | EC50 (human GLP-1R [4]; [5]) | hGLP1R B-Arrestin2 % Top (human GLP-1R [4]) | EC50 (human GLP-1R [4]; 0.1% w/v hydrolyzed Casein, read-out: hGLP1R B-Arrestin2 Rel EC50)
CC[C@H](C)[C@H](NC(=O)[C@H](CC(C)C)NC(=O)[C@H](Cc1ccc(O)cc1)NC(=O)[C@H](CCC(=O)O)NC(=O)[C@@H](NC(=O)[C@H](Cc1ccccc1)NC(=O)[C@H](Cc1c[nH]cn1)NC(=O)C(C)(C)NC(=O)[C@H](CCC(N)=O)NC(=O)[C@H](C)NC(=O)[C@H](CCCCNC(=O)COCCOCCNC(=O)COCCOCCNC(=O)CC[C@H](NC(=O)CCCCCCCCCCCCCCCCC(=O)O)C(=O)O)NC(=O)[C@H](CCCCN)NC(=O)[C@H](CC(=O)O)NC(=O)[C@H](CC(C)C)NC(=O)[C@H](CC(C)C)NC(=O)[C@@H](NC(=O)[C@H](CO)NC(=O)[C@H](Cc1ccc(O)cc1)NC(=O)[C@H](CC(=O)O)NC(=O)[C@H](CO)NC(=O)[C@@H](NC(=O)[C@H](Cc1ccccc1)NC(=O)[C@@H](NC(=O)CNC(=O)[C@H](CCC(=O)O)NC(=O)C(C)(C)NC(=O)[C@@H](N)Cc1ccc(O)cc1)[C@@H](C)O)[C@@H](C)O)[C@@H](C)CC)[C@@H](C)CC)C(=O)N[C@@H](CCC(=O)O)C(=O)NCC(=O)NCC(=O)N1CCC[C@H]1C(=O)N[C@@H](CO)C(=O)N[C@@H](CO)C(=O)NCC(N)=O [Example 322] (H-Y[Aib]EGTFTSDYSILLDKK([AEEA-AEEA-γGlu-C18 diacid])AQ[Aib]HFIEYLIEGGPSSG-NH2) | 2.31 nM | 0.146 nM | 1030 nM | 0.711 nM | 0.175 nM | – | – | –
CC[C@H](C)[C@H](NC(=O)[C@H](CC(C)C)NC(=O)[C@H](Cc1ccc(O)cc1)NC(=O)[C@H](CCC(=O)O)NC(=O)[C@@H](NC(=O)[C@H](Cc1ccccc1)NC(=O)[C@H](CCC(=O)O)NC(=O)C(C)(C)NC(=O)[C@H](CCC(N)=O)NC(=O)[C@H](C)NC(=O)[C@H](CCCCNC(=O)COCCOCCNC(=O)COCCOCCNC(=O)CC[C@H](NC(=O)CCCCCCCCCCCCCCCCCCC(=O)O)C(=O)O)NC(=O)[C@H](CCCCN)NC(=O)[C@H](CC(=O)O)NC(=O)[C@H](CC(C)C)NC(=O)[C@](C)(CC(C)C)NC(=O)[C@@H](NC(=O)[C@H](CO)NC(=O)[C@H](Cc1ccc(O)cc1)NC(=O)[C@H](CC(=O)O)NC(=O)[C@H](CO)NC(=O)[C@@H](NC(=O)[C@H](Cc1ccccc1)NC(=O)[C@@H](NC(=O)CNC(=O)[C@H](CCC(=O)O)NC(=O)C(C)(C)NC(=O)[C@@H](N)Cc1ccccc1)[C@@H](C)O)[C@@H](C)O)[C@@H](C)CC)[C@@H](C)CC)C(=O)N[C@@H](C)C(=O)NCC(=O)NCC(=O)N1CCC[C@H]1C(=O)N[C@@H](CO)C(=O)N[C@@H](CO)C(=O)NCC(=O)N[C@@H](C)C(=O)N1CCC[C@H]1C(=O)N1CCC[C@H]1C(=O)N1CCC[C@H]1C(=O)N[C@@H](CO)C(N)=O [Example 338] (H-F[Aib]EGTFTSDYSI[αMeL]LDKK([AEEA-AEEA-γGlu-C20 diacid])AQ[Aib]EFIEYLIAGGPSSGAPPPS-NH2) | 3.23 nM | 0.0472 nM | > 1060 nM | 0.174 nM | 0.0831 nM | 0.0189 µM | 47% | –
CC[C@H](C)[C@H](NC(=O)[C@H](CC(C)C)NC(=O)[C@H](Cc1ccc(O)cc1)NC(=O)[C@@H](CCC(=O)O)NC(=O)[C@@H](NC(=O)[C@H](Cc1ccccc1)NC(=O)[C@H](C)NC(=O)C(C)(C)NC(=O)[C@H](CCC(N)=O)NC(=O)[C@H](C)NC(=O)[C@H](CCCCNC(=O)COCCOCCNC(=O)COCCOCCNC(=O)CC[C@H](NC(=O)CCCCCCCCCCCCCCCCCCC(=O)O)C(=O)O)NC(=O)[C@H](CCCCN)NC(=O)[C@H](CC(=O)O)NC(=O)[C@H](CC(C)C)NC(=O)[C@](C)(CC(C)C)NC(=O)[C@@H](NC(=O)[C@H](CO)NC(=O)[C@H](Cc1ccc(O)cc1)NC(=O)[C@H](CC(=O)O)NC(=O)[C@H](CO)NC(=O)[C@@H](NC(=O)[C@H](Cc1ccccc1)NC(=O)[C@@H](NC(=O)CNC(=O)[C@H](CCC(=O)O)NC(=O)C(C)(C)NC(=O)[C@H](N)Cc1ccc(O)cc1)[C@@H](C)O)[C@@H](C)O)[C@@H](C)CC)[C@@H](C)CC)C(=O)N[C@@H](CCC(=O)O)C(=O)NCC(=O)NCC(=O)N1CCC[C@H]1C(=O)N[C@@H](CO)C(=O)N[C@@H](CO)C(=O)NCC(=O)N[C@@H](C)C(=O)N1CCC[C@H]1C(=O)N1CCC[C@H]1C(=O)N1CCC[C@H]1C(=O)N[C@@H](CO)C(N)=O [Example 356] | 10.3 nM | 0.386 nM | > 1010 nM | 0.506 nM | 0.35 nM | > 10.5 µM | – | > 10.5 µM
CC[C@H](C)[C@H](NC(=O)[C@H](CC(C)C)NC(=O)[C@H](Cc1ccc(O)cc1)NC(=O)[C@@H](CCC(=O)O)NC(=O)[C@@H](NC(=O)[C@H](Cc1ccccc1)NC(=O)[C@H](C)NC(=O)C(C)(C)NC(=O)[C@H](CCC(N)=O)NC(=O)[C@H](C)NC(=O)[C@H](CCCCNC(=O)COCCOCCNC(=O)COCCOCCNC(=O)CC[C@H](NC(=O)CCCCCCCCCCCCCCCCCCC(=O)O)C(=O)O)NC(=O)[C@H](CCCN)NC(=O)[C@H](CC(=O)O)NC(=O)[C@H](CC(C)C)NC(=O)[C@](C)(CC(C)C)NC(=O)[C@@H](NC(=O)[C@H](CO)NC(=O)[C@H](Cc1ccc(O)cc1)NC(=O)[C@H](CC(=O)O)NC(=O)[C@H](CO)NC(=O)[C@@H](NC(=O)[C@H](Cc1ccccc1)NC(=O)[C@@H](NC(=O)CNC(=O)[C@H](CCC(=O)O)NC(=O)C(C)(C)NC(=O)[C@H](N)Cc1ccc(O)cc1)[C@@H](C)O)[C@@H](C)O)[C@@H](C)CC)[C@@H](C)CC)C(=O)N[C@@H](CCC(=O)O)C(=O)NCC(=O)NCC(=O)N1CCC[C@H]1C(=O)N[C@@H](CO)C(=O)N[C@@H](CO)C(=O)NCC(=O)N[C@@H](C)C(=O)N1CCC[C@H]1C(=O)N1CCC[C@H]1C(=O)N1CCC[C@H]1C(=O)N[C@@H](CO)C(N)=O [Example 357] | 7.02 nM | 0.384 nM | > 977 nM | 0.181 nM | 0.316 nM | 0.118 µM | 18.2% | –
CC[C@H](C)[C@H](NC(=O)[C@H](CC(C)C)NC(=O)[C@H](Cc1ccc(O)cc1)NC(=O)[C@@H](CCC(=O)O)NC(=O)[C@@H](NC(=O)[C@H](Cc1ccccc1)NC(=O)[C@H](C)NC(=O)C(C)(C)NC(=O)[C@H](CCC(N)=O)NC(=O)[C@H](C)NC(=O)[C@H](CCCCNC(=O)COCCOCCNC(=O)COCCOCCNC(=O)CC[C@H](NC(=O)CCCCCCCCCCCCCCCCCCC(=O)O)C(=O)O)NC(=O)[C@H](CCCCN)NC(=O)[C@H](CC(=O)O)NC(=O)[C@H](CC(C)C)NC(=O)[C@](C)(CC(C)C)NC(=O)[C@@H](NC(=O)[C@H](CO)NC(=O)[C@H](Cc1ccc(O)cc1)NC(=O)[C@H](CC(=O)O)NC(=O)[C@H](CO)NC(=O)[C@@H](NC(=O)[C@H](Cc1ccccc1)NC(=O)[C@@H](NC(=O)CNC(=O)[C@H](CCC(=O)O)NC(=O)C(C)(C)NC(=O)[C@H](N)Cc1ccc(O)cc1)[C@@H](C)O)[C@@H](C)O)[C@@H](C)CC)C(C)C)C(=O)N[C@@H](C)C(=O)NCC(=O)NCC(=O)N1CCC[C@H]1C(=O)N[C@@H](CO)C(=O)N[C@@H](CO)C(=O)NCC(=O)N[C@@H](C)C(=O)N1CCC[C@H]1C(=O)N1CCC[C@H]1C(=O)N1CCC[C@H]1C(=O)N[C@@H](CO)C(N)=O [Example 361] (H-[dY][Aib]EGTFTSDYSI[αMeL]LDKK([AEEA-AEEA-γGlu-C20 diacid])AQ[Aib]AFV[dE]YLIAGGPSSGAPPPS-NH2) | – | 0.401 nM | – | 0.955 nM | – | 0.269 µM | 20.2% | –
